Experimental data reported in PMC4508061, “Selectivity Profiling and Biological Activity of Novel β-Carbolines as Potent and Selective DYRK1 Kinase Inhibitors” (PLoS ONE, 2015).
Read-outs that look alike come from different tables or passages of the source.

Legend:
DYRK2 = target: T1, DYRK2 (Homo sapiens, UniProt Q92630); assay: Kinase-GLO luminescent kinase assay; assay type: biochemical; conditions: 1 μM compound; means of at least 3 measurements
T1 construct: purchased ProQinase (Freiburg, Germany)
T1 sequence (Q92630 1-601): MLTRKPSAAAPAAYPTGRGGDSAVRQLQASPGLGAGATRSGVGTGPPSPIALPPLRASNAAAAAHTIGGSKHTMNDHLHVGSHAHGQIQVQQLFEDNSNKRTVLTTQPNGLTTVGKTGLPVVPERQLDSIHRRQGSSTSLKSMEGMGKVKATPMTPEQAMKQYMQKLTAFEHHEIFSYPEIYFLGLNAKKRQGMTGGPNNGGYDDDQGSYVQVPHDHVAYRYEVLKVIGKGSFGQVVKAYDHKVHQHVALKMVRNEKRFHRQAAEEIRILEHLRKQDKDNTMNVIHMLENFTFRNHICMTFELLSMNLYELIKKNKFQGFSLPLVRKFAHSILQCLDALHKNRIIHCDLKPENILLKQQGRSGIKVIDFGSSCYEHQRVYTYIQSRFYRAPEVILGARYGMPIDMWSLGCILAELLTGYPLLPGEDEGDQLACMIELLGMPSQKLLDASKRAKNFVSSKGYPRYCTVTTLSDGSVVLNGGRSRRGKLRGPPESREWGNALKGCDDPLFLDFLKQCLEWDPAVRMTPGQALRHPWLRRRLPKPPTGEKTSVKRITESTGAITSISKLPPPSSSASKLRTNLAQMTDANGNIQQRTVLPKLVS
Experimental: (§1) Bacterial expression plasmids for GST-DYRK1A-ΔC and GST-DYRK2 have been described earlier. […] Expression in logarithmically growing E. coli culture was performed for 3 h at 37°C (GST-DYRK1A-ΔC and GST-DYRK2), 3 h at 26°C (GST-HIPK2cat), over night at 28°C (GST-CLK1cat) or over night at room temperature (GST-DYRK1Bcat).
(§2) Compounds were screened for inhibitory effects against GST-DYRK1A-ΔC, GST-DYRK1Bcat, GST-DYRK2, GST-CLK1cat or GST-HIPK2cat using the Kinase-GLO Luminescent Kinase Assay from Promega. Assays were performed in a total volume of 10 μL in kinase-buffer (25 mM Hepes pH 7.4, 0.5 mM DTT, 5 mM MgCl2, 5 μM ATP) with appropriate peptide substrates (20 μM DYRKtide for the DYRKs and 100 μM DYRKtide for HIPK2, […]; or 100 μM RS domain-derived peptide for CLK1, […]). Assays were started with this amount of a kinase preparation that consumed approximately 90% of the ATP in the assay (linear range of the kinase titration curve). The reactions were run at room temperature for 30 min before 10 μL Kinase-GLO reagent was added. After incubation at room temperature for additional 10 min, luminescence was recorded for 1 s.

DYRK1A [1] = target: T2, DYRK1A (Homo sapiens, UniProt Q13627); assay: Kinase-GLO luminescent kinase assay; assay type: biochemical; conditions: 1 μM compound; means of at least 3 measurements
T2 construct: purchased ProQinase (Freiburg, Germany)
Experimental: as §1, §2

DYRK1B = DYRK1B (Homo sapiens, UniProt Q9Y463); assay: Kinase-GLO luminescent kinase assay; assay type: biochemical; set-up: made in house; host or cells: E. coli; conditions: 1 μM compound; means of at least 3 measurements
Experimental: as §1, §2

CLK1 [2] = target: T3, CLK1 (Homo sapiens, UniProt P49759); assay: Kinase-GLO luminescent kinase assay; assay type: biochemical; set-up: made in house; host or cells: E. coli; conditions: 1 μM compound; means of at least 3 measurements
Experimental: as §1, §2
Target sequence in this assay (P49759 141-484): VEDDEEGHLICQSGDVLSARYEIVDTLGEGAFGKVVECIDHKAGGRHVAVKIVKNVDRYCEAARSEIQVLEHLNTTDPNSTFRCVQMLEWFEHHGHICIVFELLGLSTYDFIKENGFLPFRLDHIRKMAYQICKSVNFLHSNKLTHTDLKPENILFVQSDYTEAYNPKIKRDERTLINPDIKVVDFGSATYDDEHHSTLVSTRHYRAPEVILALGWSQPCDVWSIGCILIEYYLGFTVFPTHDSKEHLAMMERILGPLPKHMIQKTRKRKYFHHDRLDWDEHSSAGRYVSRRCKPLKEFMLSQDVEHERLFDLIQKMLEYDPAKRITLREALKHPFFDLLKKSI

HIPK2 [3] = target: T4, HIPK2 (Homo sapiens, UniProt Q9H2X6); assay: Kinase-GLO luminescent kinase assay; assay type: biochemical; set-up: made in house; host or cells: E. coli; conditions: 10 μM compound; means of at least 3 measurements
Experimental: as §1, §2
Target sequence in this assay (Q9H2X6 180-533): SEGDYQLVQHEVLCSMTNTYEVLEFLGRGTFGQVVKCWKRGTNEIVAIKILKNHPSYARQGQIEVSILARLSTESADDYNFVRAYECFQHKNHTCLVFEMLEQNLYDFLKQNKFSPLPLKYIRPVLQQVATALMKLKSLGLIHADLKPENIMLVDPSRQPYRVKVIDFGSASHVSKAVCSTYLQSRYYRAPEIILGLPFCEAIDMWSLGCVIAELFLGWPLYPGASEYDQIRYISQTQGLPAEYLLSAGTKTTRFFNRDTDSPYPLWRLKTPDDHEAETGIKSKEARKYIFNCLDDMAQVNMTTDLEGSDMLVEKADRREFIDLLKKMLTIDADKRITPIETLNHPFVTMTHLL

Cell viability XTT assay [4] = assay type: cell-based; conditions: human, read-out: Viability of treated cells relative to untreated control
Cell viability XTT assay [5] = assay type: cell-based; conditions: rat, read-out: Viability of treated cells relative to untreated control; for viability at 3 days, 1 µM: PC12, 1 μM
Cell viability XTT assay [6] = assay type: cell-based; conditions: human, read-out: Viability of treated cells relative to untreated control; remark: listed apart in the source
CLK1 [7] = target: T3, CLK1; set-up: purchased ProQinase (Freiburg, Germany); conditions: 10 μM; cited from earlier work
Target sequence in this assay (P49759 whole entry): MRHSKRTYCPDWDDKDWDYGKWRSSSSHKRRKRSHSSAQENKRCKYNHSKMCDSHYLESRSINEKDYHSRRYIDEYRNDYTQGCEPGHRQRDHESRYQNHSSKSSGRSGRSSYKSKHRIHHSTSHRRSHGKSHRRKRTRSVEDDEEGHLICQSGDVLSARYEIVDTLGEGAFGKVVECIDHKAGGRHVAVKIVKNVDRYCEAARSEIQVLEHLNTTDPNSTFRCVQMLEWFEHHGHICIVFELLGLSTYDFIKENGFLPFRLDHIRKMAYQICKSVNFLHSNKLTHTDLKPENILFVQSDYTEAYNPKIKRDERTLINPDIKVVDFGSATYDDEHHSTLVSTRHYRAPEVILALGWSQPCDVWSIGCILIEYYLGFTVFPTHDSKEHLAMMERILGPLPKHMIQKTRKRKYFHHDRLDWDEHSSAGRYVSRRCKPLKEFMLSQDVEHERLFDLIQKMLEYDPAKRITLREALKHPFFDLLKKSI

DYRK1A [8] = conditions: 10 μM; cited from earlier work
HIPK1 = HIPK1 (Homo sapiens, UniProt Q86Z02); set-up: purchased ProQinase (Freiburg, Germany); conditions: 10 μM; cited from earlier work
IRAK1 = IRAK1 (Homo sapiens, UniProt P51617); set-up: purchased ProQinase (Freiburg, Germany); conditions: 10 μM; cited from earlier work
HIPK4 = target: T5, HIPK4 (Homo sapiens, UniProt Q8NE63); set-up: purchased ProQinase (Freiburg, Germany); conditions: 10 μM; cited from earlier work
T5 sequence (Q8NE63 1-616): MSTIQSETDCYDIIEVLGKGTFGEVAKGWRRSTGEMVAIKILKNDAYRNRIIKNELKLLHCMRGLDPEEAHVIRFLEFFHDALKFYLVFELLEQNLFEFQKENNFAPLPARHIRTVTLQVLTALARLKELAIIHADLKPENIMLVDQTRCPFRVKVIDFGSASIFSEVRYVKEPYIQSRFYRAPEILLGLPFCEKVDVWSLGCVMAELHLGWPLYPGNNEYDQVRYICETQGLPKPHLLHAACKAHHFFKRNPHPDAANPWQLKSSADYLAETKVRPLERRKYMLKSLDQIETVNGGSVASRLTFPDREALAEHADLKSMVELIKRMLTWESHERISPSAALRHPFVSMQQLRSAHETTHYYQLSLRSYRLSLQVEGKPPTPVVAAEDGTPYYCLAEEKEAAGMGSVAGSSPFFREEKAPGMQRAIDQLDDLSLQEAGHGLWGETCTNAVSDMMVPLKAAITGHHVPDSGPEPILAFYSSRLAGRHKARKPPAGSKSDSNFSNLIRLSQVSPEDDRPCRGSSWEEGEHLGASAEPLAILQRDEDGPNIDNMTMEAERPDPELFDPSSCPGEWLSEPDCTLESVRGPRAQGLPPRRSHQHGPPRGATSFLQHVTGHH

CLK3 = target: T6, CLK3 (Homo sapiens, UniProt P49761); conditions: 10 μM; cited from earlier work
T6 construct: purchased ProQinase (Freiburg, Germany)

PIM2 = PIM2 (Homo sapiens, UniProt Q9P1W9); set-up: purchased ProQinase (Freiburg, Germany); conditions: 10 μM; cited from earlier work
HIPK2 [9] = target: T4, HIPK2; set-up: purchased ProQinase (Freiburg, Germany); conditions: 10 μM; cited from earlier work
Target sequence in this assay (Q9H2X6 whole entry): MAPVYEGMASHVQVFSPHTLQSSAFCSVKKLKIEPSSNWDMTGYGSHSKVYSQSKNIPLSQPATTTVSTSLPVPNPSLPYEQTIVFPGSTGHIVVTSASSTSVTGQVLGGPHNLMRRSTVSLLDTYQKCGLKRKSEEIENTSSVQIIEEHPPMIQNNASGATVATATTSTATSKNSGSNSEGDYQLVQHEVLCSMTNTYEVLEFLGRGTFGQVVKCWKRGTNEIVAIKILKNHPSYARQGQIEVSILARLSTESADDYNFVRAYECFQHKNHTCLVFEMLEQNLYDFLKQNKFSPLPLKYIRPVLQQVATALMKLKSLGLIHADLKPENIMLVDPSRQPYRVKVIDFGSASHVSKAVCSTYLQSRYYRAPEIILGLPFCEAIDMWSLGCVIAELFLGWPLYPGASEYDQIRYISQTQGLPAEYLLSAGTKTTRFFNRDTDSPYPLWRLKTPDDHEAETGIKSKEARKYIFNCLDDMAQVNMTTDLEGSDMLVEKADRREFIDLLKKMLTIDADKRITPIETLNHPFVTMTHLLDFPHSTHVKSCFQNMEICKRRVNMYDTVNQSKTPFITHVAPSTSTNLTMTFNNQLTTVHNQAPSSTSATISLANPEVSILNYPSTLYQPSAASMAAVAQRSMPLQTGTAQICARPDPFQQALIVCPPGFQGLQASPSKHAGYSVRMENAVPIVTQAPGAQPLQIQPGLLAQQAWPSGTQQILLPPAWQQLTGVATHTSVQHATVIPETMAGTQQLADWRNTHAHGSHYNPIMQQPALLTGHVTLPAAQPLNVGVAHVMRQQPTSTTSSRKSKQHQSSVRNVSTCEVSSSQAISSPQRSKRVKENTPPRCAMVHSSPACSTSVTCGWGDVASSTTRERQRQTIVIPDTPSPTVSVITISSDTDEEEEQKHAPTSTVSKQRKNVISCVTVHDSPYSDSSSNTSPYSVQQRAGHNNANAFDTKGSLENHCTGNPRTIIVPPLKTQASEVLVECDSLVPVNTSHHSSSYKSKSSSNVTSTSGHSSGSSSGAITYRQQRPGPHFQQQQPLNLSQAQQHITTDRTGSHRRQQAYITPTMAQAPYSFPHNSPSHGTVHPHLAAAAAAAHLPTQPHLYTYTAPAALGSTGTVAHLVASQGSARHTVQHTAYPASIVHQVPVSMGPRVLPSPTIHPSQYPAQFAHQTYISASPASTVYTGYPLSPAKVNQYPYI

PIM3 = PIM3 (Homo sapiens, UniProt Q86V86); set-up: purchased ProQinase (Freiburg, Germany); conditions: 10 μM; cited from earlier work
PIM1 = PIM1 (Homo sapiens, UniProt P11309); set-up: purchased ProQinase (Freiburg, Germany); conditions: 10 μM; cited from earlier work
HIPK3 = HIPK3 (Homo sapiens, UniProt Q9H422); set-up: purchased ProQinase (Freiburg, Germany); conditions: 10 μM; cited from earlier work

PIM2, sequence (Q9P1W9 whole entry): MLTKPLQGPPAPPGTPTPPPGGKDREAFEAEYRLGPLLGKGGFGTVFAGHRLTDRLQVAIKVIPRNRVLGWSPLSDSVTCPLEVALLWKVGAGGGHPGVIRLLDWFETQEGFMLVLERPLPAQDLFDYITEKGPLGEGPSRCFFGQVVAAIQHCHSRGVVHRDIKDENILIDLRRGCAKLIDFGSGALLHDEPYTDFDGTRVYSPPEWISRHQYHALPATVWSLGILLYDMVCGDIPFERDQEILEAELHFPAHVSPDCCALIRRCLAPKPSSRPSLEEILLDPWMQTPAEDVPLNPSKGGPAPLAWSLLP
IRAK1, sequence (P51617 whole entry): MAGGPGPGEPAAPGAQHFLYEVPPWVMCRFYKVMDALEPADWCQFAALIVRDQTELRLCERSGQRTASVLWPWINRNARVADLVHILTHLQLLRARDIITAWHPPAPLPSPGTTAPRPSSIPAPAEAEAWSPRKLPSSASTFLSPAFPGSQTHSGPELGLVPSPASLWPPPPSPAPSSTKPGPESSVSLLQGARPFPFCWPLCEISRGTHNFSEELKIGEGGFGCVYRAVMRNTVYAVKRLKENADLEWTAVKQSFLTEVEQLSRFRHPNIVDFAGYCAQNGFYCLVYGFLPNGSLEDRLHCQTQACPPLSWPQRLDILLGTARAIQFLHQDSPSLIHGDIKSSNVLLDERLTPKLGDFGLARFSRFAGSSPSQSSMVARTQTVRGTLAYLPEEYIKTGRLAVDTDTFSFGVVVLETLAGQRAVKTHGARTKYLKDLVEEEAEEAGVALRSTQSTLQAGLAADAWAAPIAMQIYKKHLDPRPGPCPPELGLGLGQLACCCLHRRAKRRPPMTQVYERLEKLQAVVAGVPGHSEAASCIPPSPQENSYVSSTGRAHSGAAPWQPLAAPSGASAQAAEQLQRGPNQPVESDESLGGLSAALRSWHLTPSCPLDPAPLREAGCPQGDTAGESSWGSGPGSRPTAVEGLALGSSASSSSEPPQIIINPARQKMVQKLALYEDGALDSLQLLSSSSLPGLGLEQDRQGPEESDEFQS
HIPK1, sequence (Q86Z02 whole entry): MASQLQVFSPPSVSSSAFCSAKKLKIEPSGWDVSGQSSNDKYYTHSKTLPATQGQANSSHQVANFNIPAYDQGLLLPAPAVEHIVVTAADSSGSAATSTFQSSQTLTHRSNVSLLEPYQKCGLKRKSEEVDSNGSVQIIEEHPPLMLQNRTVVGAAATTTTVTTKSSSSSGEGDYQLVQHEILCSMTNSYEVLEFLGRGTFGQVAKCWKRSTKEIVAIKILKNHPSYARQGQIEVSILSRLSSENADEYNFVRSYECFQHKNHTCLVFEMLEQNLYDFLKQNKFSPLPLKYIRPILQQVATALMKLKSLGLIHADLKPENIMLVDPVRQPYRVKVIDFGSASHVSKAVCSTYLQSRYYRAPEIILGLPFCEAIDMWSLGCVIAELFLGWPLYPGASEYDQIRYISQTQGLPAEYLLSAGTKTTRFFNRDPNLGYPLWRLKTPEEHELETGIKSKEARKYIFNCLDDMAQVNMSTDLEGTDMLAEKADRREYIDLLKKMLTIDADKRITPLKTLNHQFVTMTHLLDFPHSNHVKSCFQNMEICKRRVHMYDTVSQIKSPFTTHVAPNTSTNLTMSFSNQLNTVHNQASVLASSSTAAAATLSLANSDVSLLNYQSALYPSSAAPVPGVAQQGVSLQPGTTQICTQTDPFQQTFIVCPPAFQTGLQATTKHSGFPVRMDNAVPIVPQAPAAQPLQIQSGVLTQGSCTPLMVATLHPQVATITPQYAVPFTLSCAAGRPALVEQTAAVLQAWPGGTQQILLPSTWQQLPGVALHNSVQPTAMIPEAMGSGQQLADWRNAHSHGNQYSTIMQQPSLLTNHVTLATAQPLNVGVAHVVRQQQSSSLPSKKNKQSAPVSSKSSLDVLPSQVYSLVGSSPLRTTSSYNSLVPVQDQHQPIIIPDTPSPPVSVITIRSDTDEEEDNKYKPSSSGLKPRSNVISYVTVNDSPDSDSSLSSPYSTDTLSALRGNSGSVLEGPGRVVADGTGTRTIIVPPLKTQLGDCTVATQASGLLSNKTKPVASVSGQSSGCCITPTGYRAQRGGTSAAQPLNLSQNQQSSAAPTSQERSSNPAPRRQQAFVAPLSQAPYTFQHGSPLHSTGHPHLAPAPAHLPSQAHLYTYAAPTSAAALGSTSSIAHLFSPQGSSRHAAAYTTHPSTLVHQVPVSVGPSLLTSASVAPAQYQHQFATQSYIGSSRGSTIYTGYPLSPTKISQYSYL

For `COc1ccc2c(c1)[nH]c1c(/C=C/c3ccccc3)nccc12` [AnnH18_5], the “Residual activity (% of control) DYRK2” value (DYRK2) was 51 % of control, the “Residual activity (% of control) DYRK1A” value (DYRK1A [1]) was 27 % of control and the “Residual activity (% of control) DYRK1B” value (DYRK1B) was 50 % of control. The “Residual activity (% of control) CLK1” value (CLK1 [2]) was 58 % of control and the “Residual activity (% of control) HIPK2” value (HIPK2 [3]) was 95 % of control.

Work on `COc1ccc2c(c1)[nH]c1c(Cl)nccc12` [AnnH24] yielded a viability at 3 days, 1 µM (Cell viability XTT assay [4]; HeLa cells) of 97%, a viability at 3 days, 3 µM (Cell viability XTT assay [4]; HeLa cells, 3 μM) of 96% and a viability at 3 days, 10 µM (Cell viability XTT assay [4]; HeLa cells, 10 μM) of 72%. It also gave a viability at 3 days, 1 µM (Cell viability XTT assay [5]; PC12 cells) of 95%, a viability at 3 days, 3 µM (Cell viability XTT assay [5]; PC12 cells, PC12, 3 μM) of 90% and a viability at 3 days, 10 µM (Cell viability XTT assay [5]; PC12 cells, PC12, 10 μM) of 81%. The “Residual activity (% of control) DYRK2” value (DYRK2) was 63 % of control, the viability at 3 days, 1 µM (Cell viability XTT assay [6]; SH-SY5Y cells) was 75% and the viability at 3 days, 3 µM (Cell viability XTT assay [6]; SH-SY5Y cells, 3 μM) was 66%. The viability at 3 days, 10 µM (Cell viability XTT assay [6]; SH-SY5Y cells, 10 μM) was 45%, the “Residual activity (% of control) DYRK1B” value (DYRK1B) was 44 % of control and the “Residual activity (% of control) CLK1” value (CLK1 [2]) was 17 % of control. For the same compound, the “Residual activity (% of control) HIPK2” value (HIPK2 [3]) was 91 % of control.

With `COc1ccc2c3ccnc(C)c3n(CCC#N)c2c1` [AnnH42] the “Residual activity (% of control) DYRK2” value (DYRK2) was 81 % of control, the “Residual activity (% of control) DYRK1A” value (DYRK1A [1]) was 22 % of control and the “Residual activity (% of control) DYRK1B” value (DYRK1B) was 43 % of control. The “Residual activity (% of control) CLK1” value (CLK1 [2]) was 44 % of control and the “Residual activity (% of control) HIPK2” value (HIPK2 [3]) was 96 % of control.

With `C#CCn1c2c(C)nccc2c2ccc(Cl)c(Cl)c21` [AnnH67] the “Residual activity (% of control) DYRK2” value (DYRK2) was 100 % of control, the “Residual activity (% of control) DYRK1A” value (DYRK1A [1]) was 17 % of control and the “Residual activity (% of control) DYRK1B” value (DYRK1B) was 59 % of control. The “Residual activity (% of control) CLK1” value (CLK1 [2]) was 34 % of control and the “Residual activity (% of control) HIPK2” value (HIPK2 [3]) was 74 % of control.

For `Cc1nccc2c3ccc(Cl)c(Cl)c3n(CC#N)c12` [AnnH69], the “Residual activity (% of control) DYRK2” value (DYRK2) was 61 % of control, the “Residual activity (% of control) DYRK1A” value (DYRK1A [1]) was 17 % of control and the “Residual activity (% of control) DYRK1B” value (DYRK1B) was 60 % of control. The “Residual activity (% of control) CLK1” value (CLK1 [2]) was 33 % of control and the “Residual activity (% of control) HIPK2” value (HIPK2 [3]) was 33 % of control.

With `C#CCn1c2cc(OC)ccc2c2ccnc(Cl)c21` [AnnH74] the “Residual activity (% of control) DYRK2” value (DYRK2) was 85 % of control, the “Residual activity (% of control) DYRK1A” value (DYRK1A [1]) was 12 % of control and the “Residual activity (% of control) DYRK1B” value (DYRK1B) was 35 % of control. For the same compound, the “Residual activity (% of control) CLK1” value (CLK1 [2]) was 46 % of control and the “Residual activity (% of control) HIPK2” value (HIPK2 [3]) was 97 % of control.

In the case of `O=C1NC(Nc2ccccc2)=N/C1=C\c1ccc2c(c1)OCO2` [L41], the “Residual activity (% of control)” value (CLK1 [7]) is given as 0 % of control, the “Residual activity (% of control)” value (DYRK1A [8]) is given as 0 % of control and the “Residual activity (% of control)” value (HIPK1) is given as 1 % of control. The “Residual activity (% of control)” value (IRAK1) was 3 % of control, the “Residual activity (% of control)” value (HIPK4) was 44 % of control and the “Residual activity (% of control)” value (CLK3) was 2 % of control. The “Residual activity (% of control)” value (PIM2) was 41 % of control, the “Residual activity (% of control)” value (HIPK2 [9]) was 11 % of control and the “Residual activity (% of control)” value (PIM3) was 27 % of control.

For `CN1C(=O)/C(=C/c2ccc3c(c2)OCO3)N=C1N` [Leucett-amine B, Leucettamine B], the “Residual activity (% of control)” value (DYRK1A [8]) is given as 2 % of control, the “Residual activity (% of control)” value (HIPK1) is given as 34 % of control and the “Residual activity (% of control)” value (IRAK1) is given as 100 % of control. For the same compound, the “Residual activity (% of control)” value (HIPK4) was 91 % of control, the “Residual activity (% of control)” value (PIM2) was 82 % of control and the “Residual activity (% of control)” value (HIPK2 [9]) was 60 % of control. For the same compound, the “Residual activity (% of control)” value (PIM1) was 73 % of control, the “Residual activity (% of control)” value (PIM3) was 71 % of control and the “Residual activity (% of control)” value (HIPK3) was 45 % of control.

Compound `CN[C@@H]1C[C@H]2O[C@@](C)([C@@H]1OC)n1c3ccccc3c3c4c(c5c6ccccc6n2c5c31)C(=O)NC4` [Staurosporine, reference compound] has a viability at 3 days, 1 µM (Cell viability XTT assay [4]; HeLa) of 8%, a viability at 3 days, 1 µM (Cell viability XTT assay [5]) of 18% and a viability at 3 days, 1 µM (Cell viability XTT assay [6]; SH-SY5Y) of 6%.
